Reference: US12564560B1, “Selective serotonin receptor modulators and methods of making and using the same” (Park City Bio, LLC, priority 2024, dated 2026)

Assays:
Type in all cases: cell-based
[1] = target: T1, 5-HT2C (Homo sapiens, UniProt P28335); experiment: 5-HT2C Gq signaling bias compared to β-arrestin signaling; set-up: expressed in transfected cells; host or cells: HEK293T (Gq arm; β-arrestin arm not described); conditions: primary 5-HT2C signaling via Gq compared to β-arrestin
T1 sequence (P28335 33-458): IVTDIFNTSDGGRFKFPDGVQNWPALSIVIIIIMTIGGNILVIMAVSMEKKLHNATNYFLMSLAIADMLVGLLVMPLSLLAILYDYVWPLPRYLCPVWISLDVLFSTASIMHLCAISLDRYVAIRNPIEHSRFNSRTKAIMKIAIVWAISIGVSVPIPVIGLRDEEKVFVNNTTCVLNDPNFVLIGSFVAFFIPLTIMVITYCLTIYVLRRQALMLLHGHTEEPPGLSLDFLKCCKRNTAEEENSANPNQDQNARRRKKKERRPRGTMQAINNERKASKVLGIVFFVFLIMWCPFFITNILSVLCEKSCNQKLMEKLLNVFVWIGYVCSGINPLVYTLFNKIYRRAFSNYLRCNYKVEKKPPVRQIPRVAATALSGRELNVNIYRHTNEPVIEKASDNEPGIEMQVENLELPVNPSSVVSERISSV
Source text: To measure 5-HT2 receptor-mediated Gq activation via Gq/y1 dissociation as measured by Bioluminescence Resonance Energy Transfer (BRET) (McCorvy J D, Wacker D, Wang S, Agegnehu B, Liu J, Lansu K, Tribo AR, Olsen RHJ, Che T, Jin J, Roth BL. Structural determinants of 5-HT2B receptor activation and biased agonism. Nat Struct Mo/Biol. 2018; 25(9): 787-96), HEK293T cells were sub-cultured in Dulbecco's Modified Eagle Medium (DMEM) supplemented with 10% dialyzed fetal bovine serum (FBS) and were co-transfected in a 1:1:1:1 ratio with Rluc8-fused human Gaq (Gaq-Rluc8), a GFP2-fused to the C-terminus of human Gy1(Gy1-GFP2), human GI31, and 5-HT2 receptor using TransiT-2020. After at least 18-24 hours, transfected cells were plated in poly-lysine coated 96-well white clear bottom cell culture plates in DMEM containing 1% dialyzed FBS at a density of 25,000-40,000 cells in 200 μL per well and incubated overnight. The following day, medium was decanted, and cells were washed with 60 μL of drug buffer (1×HBSS, 20 mM HEPES, pH 7.4), then 60 μL of drug buffer was added per well. Cells were pre-incubated at in a humidified atmosphere at 37° C. before receiving drug stimulation. […] Substrate addition occurred 15 minutes before reading and utilized 10 μL of the Rluc substrate coelenterazine 400a for Gq dissociation BRET^2 (Prolume/Nanolight, 5 μM final concentration). Plates were read for luminescence at 400 nm and fluorescent GFP2 emission at 510 nm at 1 second per well using a Mithras LB940 multimode microplate reader (e.g. one provided by Berthold). The BRET ratios of fluorescence/luminescence were calculated per well and were plotted as a function of drug concentration using Graphpad Prism 8 (Graphpad Software Inc., San Diego, CA). Data were normalized to % 5-HT stimulation and analyzed using nonlinear regression “log(agonist) vs. response” to yield Emax and EC50 parameter estimates. […]

[2] = target: T1, 5-HT2C; experiment: 5-HT2 receptor-mediated Gq activation via Gq/γ1 dissociation BRET; set-up: expressed in transfected cells; host or cells: HEK293T
Source text: (§1) To measure 5-HT2 receptor-mediated Gq activation via Gq/y1 dissociation as measured by Bioluminescence Resonance Energy Transfer (BRET) (McCorvy J D, Wacker D, Wang S, Agegnehu B, Liu J, Lansu K, Tribo AR, Olsen RHJ, Che T, Jin J, Roth BL. Structural determinants of 5-HT2B receptor activation and biased agonism. Nat Struct Mo/Biol. 2018; 25(9): 787-96), HEK293T cells were sub-cultured in Dulbecco's Modified Eagle Medium (DMEM) supplemented with 10% dialyzed fetal bovine serum (FBS) and were co-transfected in a 1:1:1:1 ratio with Rluc8-fused human Gaq (Gaq-Rluc8), a GFP2-fused to the C-terminus of human Gy1(Gy1-GFP2), human GI31, and 5-HT2 receptor using TransiT-2020. After at least 18-24 hours, transfected cells were plated in poly-lysine coated 96-well white clear bottom cell culture plates in DMEM containing 1% dialyzed FBS at a density of 25,000-40,000 cells in 200 μL per well and incubated overnight. The following day, medium was decanted, and cells were washed with 60 μL of drug buffer (1×HBSS, 20 mM HEPES, pH 7.4), then 60 μL of drug buffer was added per well. Cells were pre-incubated at in a humidified atmosphere at 37° C. before receiving drug stimulation. Drug stimulation utilized 30 μL addition of drug (3X) diluted in McCorvy buffer (1×HBSS, 20 mM HEPES, pH 7.4, supplemented with 0.3% BSA fatty acid free, 0.03% ascorbic acid) and plates were incubated at for 1 hour at 37° C. Substrate addition occurred 15 minutes before reading and utilized 10 μL of the Rluc substrate coelenterazine 400a for Gq dissociation BRET^2 (Prolume/Nanolight, 5 μM final concentration). Plates were read for luminescence at 400 nm and fluorescent GFP2 emission at 510 nm at 1 second per well using a Mithras LB940 multimode microplate reader (e.g. one provided by Berthold). The BRET ratios of fluorescence/luminescence were calculated per well and were plotted as a function of drug concentration using Graphpad Prism 8 (Graphpad Software Inc., San Diego, CA). Data were normalized to % 5-HT stimulation and analyzed using nonlinear regression “log(agonist) vs. response” to yield Emax and EC50 parameter estimates. Results are shown in Table 5, where A=<10; B=10 to <100; C=100 to 1000 and D=>1000; +++=>80%; ++=50 to 80%; and +=<50%; NA=No Activity. […] Hallucinogenic (“Hall”) or non-hallucinogenic (“N-Hall”) plastogenic effect is predicted for compounds based on the level 5-HT2A agonist efficacy.

[3] = target: T2, 5-HT2B (Homo sapiens, UniProt P41595); experiment: as above; conditions: HEK293T cells
T2 construct: expressed in transfected cells; host or cells: HEK293T
Source text: as §1

[4] = target: T3, 5-HT2A (Homo sapiens, UniProt P28223); experiment: as above; conditions: for EC50: HEK293T cells; for Hall or N-Hall?: hallucinogenic or non-hallucinogenic effect predicted from level of 5-HT2A agonist efficacy
T3 construct: expressed in transfected cells; host or cells: HEK293T
Source text: as §1

T3 sequence (P28223 whole entry): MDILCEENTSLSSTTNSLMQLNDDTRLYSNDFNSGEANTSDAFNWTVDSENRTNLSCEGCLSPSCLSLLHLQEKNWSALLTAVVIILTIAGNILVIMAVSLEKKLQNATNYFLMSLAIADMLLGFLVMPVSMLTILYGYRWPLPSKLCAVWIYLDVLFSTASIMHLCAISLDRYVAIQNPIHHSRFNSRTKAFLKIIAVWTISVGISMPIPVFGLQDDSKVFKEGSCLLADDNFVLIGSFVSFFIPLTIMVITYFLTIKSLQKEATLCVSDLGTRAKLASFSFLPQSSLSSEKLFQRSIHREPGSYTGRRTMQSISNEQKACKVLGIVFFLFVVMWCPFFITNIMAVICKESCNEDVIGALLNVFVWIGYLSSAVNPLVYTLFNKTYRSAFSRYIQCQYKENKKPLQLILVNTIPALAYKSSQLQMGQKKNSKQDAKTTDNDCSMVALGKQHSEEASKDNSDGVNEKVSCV
T2 sequence (P41595 whole entry): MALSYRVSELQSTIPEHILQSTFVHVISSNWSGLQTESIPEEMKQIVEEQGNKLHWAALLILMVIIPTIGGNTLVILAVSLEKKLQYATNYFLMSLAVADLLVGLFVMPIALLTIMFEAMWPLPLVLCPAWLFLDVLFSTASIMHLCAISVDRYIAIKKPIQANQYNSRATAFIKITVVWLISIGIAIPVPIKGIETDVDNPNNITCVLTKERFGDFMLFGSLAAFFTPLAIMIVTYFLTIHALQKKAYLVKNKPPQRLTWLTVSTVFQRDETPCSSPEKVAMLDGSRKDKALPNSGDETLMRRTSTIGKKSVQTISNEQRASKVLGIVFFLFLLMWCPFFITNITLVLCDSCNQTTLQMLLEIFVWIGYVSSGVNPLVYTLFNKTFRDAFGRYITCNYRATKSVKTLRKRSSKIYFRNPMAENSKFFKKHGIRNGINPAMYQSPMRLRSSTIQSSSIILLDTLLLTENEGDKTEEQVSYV

Structure (SMILES): CNC[C@H]1C[C@@H]1c1cc(F)ccc1OC
- 5-HT2C Gq signaling bias? [1]: Yes
- EC50 [2]: 10 to 100 nM
- EC50 [3]: 10 to 100 nM
- EC50 ([4]; Gq dissociation BRET): 100 to 1000 nM
- Hall or N-Hall? [4]: N-Hall

Structure (SMILES): CNCC1CC1c1cc(F)ccc1SC (stereo not drawn)
- 5-HT2C Gq signaling bias? [1]: Yes
- EC50 [2]: < 10 nM
- EC50 ([4]; Gq dissociation BRET): 100 to 1000 nM
- Hall or N-Hall? [4]: N-Hall

Structure (SMILES): CSc1ccc(F)cc1C1CC1CN(C)C (stereo not drawn)
- 5-HT2C Gq signaling bias? [1]: Yes
- EC50 [2]: 10 to 100 nM
- Emax ([2]; read-out: 5-HT2C Emax): < 50%
- EC50 ([4]; Gq dissociation BRET): > 1000 nM
- Emax ([4]; Gq dissociation BRET, normalized to % 5-HT stimulation): < 50%
- Hall or N-Hall? [4]: N-Hall
